Measurements from the NIST ThermoML archive (doi:10.1021/je600519p).

Assay: xn = mol fraction of the nth substance listed
Conditions: 101 kPa, Liquid

CC(=O)c1ccccc1 [acetophenone] + CCCCCCO
Conditions	mass density [kg/m3]	speed of sound [m/s]	viscosity [mPa·s]
293.15 K, x1 = 0.0498	828.69	1316	4.831
293.15 K, x1 = 0.1009	838.84	1323	4.397
293.15 K, x1 = 0.1517	848.99	1331	3.997
293.15 K, x1 = 0.2106	860.83	1341	3.605
293.15 K, x1 = 0.2474	868.27	1348	3.31
293.15 K, x1 = 0.3028	879.53	1358	2.986
293.15 K, x1 = 0.3426	887.67	1365	2.744
293.15 K, x1 = 0.3978	899.01	1375	2.491
293.15 K, x1 = 0.4512	910.05	1385	2.266
293.15 K, x1 = 0.4985	919.88	1394	2.085
293.15 K, x1 = 0.5526	931.2	1404	1.93
293.15 K, x1 = 0.6071	942.67	1415	1.798
293.15 K, x1 = 0.6491	951.55	1424	1.744
293.15 K, x1 = 0.7101	964.53	1437	1.65
293.15 K, x1 = 0.7485	972.75	1445	1.664
293.15 K, x1 = 0.8019	984.23	1457	1.673
293.15 K, x1 = 0.8521	995.09	1467	1.691
293.15 K, x1 = 0.9045	1006.5	1476	1.71
293.15 K, x1 = 0.9554	1017.63	1485	1.727
303.15 K, x1 = 0.0498	821.41	1285	3.559
303.15 K, x1 = 0.1009	831.48	1293	3.262
303.15 K, x1 = 0.1517	841.54	1302	2.989
303.15 K, x1 = 0.2106	853.28	1313	2.725
303.15 K, x1 = 0.2474	860.66	1320	2.511
303.15 K, x1 = 0.3028	871.83	1332	2.306
303.15 K, x1 = 0.3426	879.89	1340	2.148
303.15 K, x1 = 0.3978	891.14	1351	1.961
303.15 K, x1 = 0.4512	902.09	1362	1.805
303.15 K, x1 = 0.4985	911.85	1371	1.692
303.15 K, x1 = 0.5526	923.08	1382	1.583
303.15 K, x1 = 0.6071	934.47	1393	1.488
303.15 K, x1 = 0.6491	943.29	1402	1.442
303.15 K, x1 = 0.7101	956.19	1414	1.431
303.15 K, x1 = 0.7485	964.35	1421	1.426
303.15 K, x1 = 0.8019	975.77	1430	1.455
303.15 K, x1 = 0.8521	986.56	1439	1.465
303.15 K, x1 = 0.9045	997.88	1445	1.48
303.15 K, x1 = 0.9554	1008.95	1451	1.496
313.15 K, x1 = 0.0498	813.97	1277	2.684
313.15 K, x1 = 0.1009	823.85	1285	2.481
313.15 K, x1 = 0.1517	833.75	1293	2.292
313.15 K, x1 = 0.2106	845.32	1303	2.104
313.15 K, x1 = 0.2474	852.58	1310	1.977
313.15 K, x1 = 0.3028	863.61	1320	1.812
313.15 K, x1 = 0.3426	871.57	1328	1.697
313.15 K, x1 = 0.3978	882.7	1339	1.58
313.15 K, x1 = 0.4512	893.55	1350	1.483
313.15 K, x1 = 0.4985	903.23	1360	1.396
313.15 K, x1 = 0.5526	914.38	1370	1.322
313.15 K, x1 = 0.6071	925.7	1380	1.263
313.15 K, x1 = 0.6491	934.49	1387	1.255
313.15 K, x1 = 0.7101	947.35	1398	1.243
313.15 K, x1 = 0.7485	955.5	1404	1.252
313.15 K, x1 = 0.8019	966.9	1408	1.264
313.15 K, x1 = 0.8521	977.72	1409	1.266
313.15 K, x1 = 0.9045	989.09	1411	1.271
313.15 K, x1 = 0.9554	1000.23	1416	1.276
323.15 K, x1 = 0.0498	806.47	1230	2.119
323.15 K, x1 = 0.1009	816.28	1238	1.97
323.15 K, x1 = 0.1517	826.11	1247	1.831
323.15 K, x1 = 0.2106	837.59	1259	1.69
323.15 K, x1 = 0.2474	844.8	1266	1.585
323.15 K, x1 = 0.3028	855.74	1278	1.48
323.15 K, x1 = 0.3426	863.65	1287	1.395
323.15 K, x1 = 0.3978	874.71	1298	1.307
323.15 K, x1 = 0.4512	885.48	1308	1.236
323.15 K, x1 = 0.4985	895.1	1316	1.169
323.15 K, x1 = 0.5526	906.19	1326	1.118
323.15 K, x1 = 0.6071	917.44	1335	1.075
323.15 K, x1 = 0.6491	926.17	1342	1.069
323.15 K, x1 = 0.7101	938.95	1351	1.073
323.15 K, x1 = 0.7485	947.06	1356	1.075
323.15 K, x1 = 0.8019	958.4	1361	1.073
323.15 K, x1 = 0.8521	969.16	1365	1.067
323.15 K, x1 = 0.9045	980.48	1370	1.076
323.15 K, x1 = 0.9554	991.56	1372	1.086
